One series deals with Aphidius rhopalosiphi. As to the kind of experiment: LR50; higher = less toxic. Particulars: acute; duration: 48 hours; mortality.
The test system of a further series is Typhlodromus pyri. As to the kind of experiment: LR50; higher = less toxic. The following applies: acute; duration: 7 days; mortality.
The test system of the next series is Cyprinodon variegatus. Particulars: acute; duration: 96 hours; mortality.
For another series, the system named is Daphnia magna. Particulars: chronic/long-term; duration: 21 days; mobility.
The test system of a further series is Anas platyrhynchos. The following applies: reproductive.
The next series relates to Apis mellifera. Particulars: acute, duration: 48 hours, mortality.
The test system of a further series is Bibionidae. The following applies: chronic/long-term; duration: 21 days; other.
The next series concerns Tagia sp. Particulars: acute; duration: 14 days; mortality.
Another series relates to Canidae. The following applies: chronic; duration: 52 weeks; oral; Dog Other; organ weight.
For another series, the system named is Colinus virginianus. The following applies: acute, oral, mortality.
In a further series the test system is Pimephales promelas. The following applies: chronic/long-term; duration: 33 days; other.

Converted amounts (≈) assume the structure as drawn.

By NOAEL is commonly meant the highest tested level that showed no adverse finding. Regarding `CCOC(=O)OC1=C(c2cc(C)ccc2C)C(=O)NC12CCC(OC)CC2` (stereo unspecified) [Spirotetramat], the LR50 with Aphidius rhopalosiphi came out at 115 g/ha; in the series with Typhlodromus pyri, 0.333 g/ha. Moreover, the LC50 with Cyprinodon variegatus is 1.96 mg/L (≈ 5.25 µM); with Tagia sp., greater than 1000 mg/kg; in the series on Colinus virginianus (diet), greater than 475 mg/kg-day. Besides, the NOEC in the series on Daphnia magna was 2 mg/L; in the series on Bibionidae, 0.1 mg/L; with Pimephales promelas it was 0.534 mg/L. Moreover, the no observed adverse effect level (NOAEL) in the series on Rattus norvegicus (acute, clinical signs) stood at 100 mg/kg-day; with Rattus norvegicus (reproduction developmental, body weight), 70 mg/kg-day; in the series on Anas platyrhynchos it was 4 mg/kg-day; in the series with Canidae, 5 mg/kg-day. In addition, the LD50 in the series on Rattus norvegicus (acute, oral, mortality) is greater than 2000 mg/kg-day; in the series on Apis mellifera (dermal), greater than 100 µg/piece; in the series on Apis mellifera (oral, unspecified) it was greater than 107 µg/piece; in the series on Colinus virginianus it was greater than 2000 mg/kg-day.

The values above are taken from EPA's ToxValDB 9.5 (doi:10.2903/j.efsa.2013.3243).
